# Measurements published in patent US20100249419A1, “UTILIZATION OF NOVEL COMPOUNDS WITH AMYLOID AFFINITY AND METHOD OF PRODUCING THE SAME” (NIHON MEDI-PHYSICS CO., LTD., priority 2007, published 2010).
# Test: Radioactive distribution ratio in each organ
# Format: in vivo, SD rat
# Experimental: In order to confirm that a compound of the present invention can be distributed in a target organ and has good clearance to the outside of the body, Compound 1 was used to measure a time-course change of radioactive accumulation to each organ in SD rat (8 weeks).
# A solution of Compound 1 prepared in Example 3 in diethylether was diluted with a 10 mg/mL ascorbic acid-containing physiological saline solution (Example 10) and adjusted to 8-12 MBq/mL in radioactive concentration. 0.05 mL each of the prepared sample solution was administered under thiopental anesthesia into the tail vein of the above rat. The rats were sacrificed by bleeding from abdominal artery, and each organ shown in Table 11 was removed 5, 30, 60 and 180 minutes after the administration. Each removed organ was subjected to measurement of mass and radioactivity with the same method as in Example 10. Also, radioactivity of the whole body of the rat after removal of the organs (hereinafter referred to as rest of the whole body) was measured. Using these measurement results, radioactive distribution per unit weight of each organ (% ID/g) at the respective time points was calculated in accordance with the following formula (7).
# Three animals were used for the experiment at the respective time points.
# [formula] • R^T: Radioactivity of target organ (cpm) • R^S: Sum of radioactivity of all the organs (cpm) • R^R: Radioactivity of the rest of the whole body (cpm) • M^T: Mass of target organ (g)
substance,measurement,setting,value
"2-[4′-(2″-hydroxyethoxy)phenyl]-6-[^123I]iodoimidazo[1,2-a]pyridine [Compound 1]","Radioactive distribution per unit weight of organ, Average","Adrenal gland, 5 min. after administration",2.471 % ID/g
same,"Radioactive distribution per unit weight of organ, Average","Adrenal gland, 30 min. after administration",0.199 % ID/g
same,"Radioactive distribution per unit weight of organ, Average","Adrenal gland, 60 min. after administration",0.068 % ID/g
same,"Radioactive distribution per unit weight of organ, Average","Adrenal gland, 180 min. after administration",0.052 % ID/g
same,"Radioactive distribution per unit weight of organ, Average","Blood, 5 min. after administration",0.420 % ID/g
same,"Radioactive distribution per unit weight of organ, Average","Blood, 30 min. after administration",0.129 % ID/g
same,"Radioactive distribution per unit weight of organ, Average","Blood, 60 min. after administration",0.101 % ID/g
same,"Radioactive distribution per unit weight of organ, Average","Blood, 180 min. after administration",0.068 % ID/g
same,"Radioactive distribution per unit weight of organ, Average","Bone, 5 min. after administration",0.282 % ID/g
same,"Radioactive distribution per unit weight of organ, Average","Bone, 30 min. after administration",0.066 % ID/g
same,"Radioactive distribution per unit weight of organ, Average","Bone, 60 min. after administration",0.047 % ID/g
same,"Radioactive distribution per unit weight of organ, Average","Bone, 180 min. after administration",0.032 % ID/g
same,"Radioactive distribution per unit weight of organ, Average","Brain, 5 min. after administration",0.755 % ID/g
same,"Radioactive distribution per unit weight of organ, Average","Brain, 30 min. after administration",0.049 % ID/g
same,"Radioactive distribution per unit weight of organ, Average","Brain, 60 min. after administration",0.014 % ID/g
same,"Radioactive distribution per unit weight of organ, Average","Brain, 180 min. after administration",0.005 % ID/g
same,"Radioactive distribution per unit weight of organ, Average","Heart, 5 min. after administration",0.582 % ID/g
same,"Radioactive distribution per unit weight of organ, Average","Heart, 30 min. after administration",0.081 % ID/g
same,"Radioactive distribution per unit weight of organ, Average","Heart, 60 min. after administration",0.049 % ID/g
same,"Radioactive distribution per unit weight of organ, Average","Heart, 180 min. after administration",0.029 % ID/g
same,"Radioactive distribution per unit weight of organ, Average","Kidney, 5 min. after administration",1.212 % ID/g
same,"Radioactive distribution per unit weight of organ, Average","Kidney, 30 min. after administration",0.432 % ID/g
same,"Radioactive distribution per unit weight of organ, Average","Kidney, 60 min. after administration",0.236 % ID/g
same,"Radioactive distribution per unit weight of organ, Average","Kidney, 180 min. after administration",0.070 % ID/g
same,"Radioactive distribution per unit weight of organ, Average","Large intestine, 5 min. after administration",0.139 % ID/g
same,"Radioactive distribution per unit weight of organ, Average","Large intestine, 30 min. after administration",0.054 % ID/g
same,"Radioactive distribution per unit weight of organ, Average","Large intestine, 60 min. after administration",0.069 % ID/g
same,"Radioactive distribution per unit weight of organ, Average","Large intestine, 180 min. after administration",6.876 % ID/g
same,"Radioactive distribution per unit weight of organ, Average","Liver, 5 min. after administration",1.865 % ID/g
same,"Radioactive distribution per unit weight of organ, Average","Liver, 30 min. after administration",0.293 % ID/g
same,"Radioactive distribution per unit weight of organ, Average","Liver, 60 min. after administration",0.113 % ID/g
same,"Radioactive distribution per unit weight of organ, Average","Liver, 180 min. after administration",0.051 % ID/g
same,"Radioactive distribution per unit weight of organ, Average","Lung, 5 min. after administration",0.661 % ID/g
same,"Radioactive distribution per unit weight of organ, Average","Lung, 30 min. after administration",0.117 % ID/g
same,"Radioactive distribution per unit weight of organ, Average","Lung, 60 min. after administration",0.076 % ID/g
same,"Radioactive distribution per unit weight of organ, Average","Lung, 180 min. after administration",0.053 % ID/g
same,"Radioactive distribution per unit weight of organ, Average","Marrow, 5 min. after administration",0.921 % ID/g
same,"Radioactive distribution per unit weight of organ, Average","Marrow, 30 min. after administration",0.087 % ID/g
same,"Radioactive distribution per unit weight of organ, Average","Marrow, 60 min. after administration",0.015 % ID/g
same,"Radioactive distribution per unit weight of organ, Average","Marrow, 180 min. after administration",0.000 % ID/g
same,"Radioactive distribution per unit weight of organ, Average","Muscle, 5 min. after administration",0.372 % ID/g
same,"Radioactive distribution per unit weight of organ, Average","Muscle, 30 min. after administration",0.042 % ID/g
same,"Radioactive distribution per unit weight of organ, Average","Muscle, 60 min. after administration",0.025 % ID/g
same,"Radioactive distribution per unit weight of organ, Average","Muscle, 180 min. after administration",0.015 % ID/g
same,"Radioactive distribution per unit weight of organ, Average","Pancreas, 5 min. after administration",0.778 % ID/g
same,"Radioactive distribution per unit weight of organ, Average","Pancreas, 30 min. after administration",0.097 % ID/g
same,"Radioactive distribution per unit weight of organ, Average","Pancreas, 60 min. after administration",0.051 % ID/g
same,"Radioactive distribution per unit weight of organ, Average","Pancreas, 180 min. after administration",0.033 % ID/g
same,Excretion / clearance to the outside of the body,"SD rat, tail vein administration",biliary-excreted rapidly
same,"Radioactive distribution per unit weight of organ, Average","Small intestine, 5 min. after administration",1.299 % ID/g
same,"Radioactive distribution per unit weight of organ, Average","Small intestine, 30 min. after administration",6.720 % ID/g
same,"Radioactive distribution per unit weight of organ, Average","Small intestine, 60 min. after administration",7.515 % ID/g
same,"Radioactive distribution per unit weight of organ, Average","Small intestine, 180 min. after administration",0.882 % ID/g
same,"Radioactive distribution per unit weight of organ, Average","Spleen, 5 min. after administration",0.508 % ID/g
same,"Radioactive distribution per unit weight of organ, Average","Spleen, 30 min. after administration",0.072 % ID/g
same,"Radioactive distribution per unit weight of organ, Average","Spleen, 60 min. after administration",0.044 % ID/g
same,"Radioactive distribution per unit weight of organ, Average","Spleen, 180 min. after administration",0.035 % ID/g
same,"Radioactive distribution per unit weight of organ, Average","Stomach, 5 min. after administration",0.492 % ID/g
same,"Radioactive distribution per unit weight of organ, Average","Stomach, 30 min. after administration",1.202 % ID/g
same,"Radioactive distribution per unit weight of organ, Average","Stomach, 60 min. after administration",0.808 % ID/g
same,"Radioactive distribution per unit weight of organ, Average","Stomach, 180 min. after administration",0.982 % ID/g
same,Ratio (% ID/g at 5 minutes after the administration)/(% ID/g at 180 minutes after the administration),bones,9
same,Ratio (% ID/g at 5 minutes after the administration)/(% ID/g at 180 minutes after the administration),brain,145
same,Ratio (% ID/g at 5 minutes after the administration)/(% ID/g at 180 minutes after the administration),heart,20
same,Ratio (% ID/g at 5 minutes after the administration)/(% ID/g at 180 minutes after the administration),lung,13
same,Ratio (% ID/g at 5 minutes after the administration)/(% ID/g at 180 minutes after the administration),pancreas,24
